From patent US5756763A, “Pyrrolidine derivatives” (Zaidan Hojin Biseibutsu Kagaku Kenkyukai, priority 1993, dated 1998)

What was measured:
prolyl endopeptidase = target: T1, prolyl endopeptidase (Sus scrofa, UniProt P23687); experiment: Enzyme inhibitory action on swine kidney-derived prolyl endopeptidase (Z-Gly-Pro-β-naphthylamide substrate); format: biochemical; conditions: for IC50: swine kidney prolyl endopeptidase, 0.1 mM substrate, 37° C., 30 minutes, pH 7.5
T1 construct: swine kidney-derived prolyl endopeptidase; from tissue; host or cells: swine kidney
Protocol: (§1) Using 0.1 mM of benzyolxycarbonylglycylproline-β-naphthylamide as substrate and swine kidney-derived prolyl endopeptidase as enzyme, the enzyme was acted on the substrate at 37° C. for 30 minutes in 0.025 M Tris(hydroxymethyl)methane amine-hydrochloric acid (pH 7.5) solution. Fast Garnet was added to form a color and absorbance was measured at 525 nm. The inhibitory activity is expressed in terms of concentration required for 50% inhibition (IC50).

[1] = test system: prolyl endopeptidase in mouse brain; experiment: Prolyl endopeptidase inhibition activity in mouse brain after intravenous administration; format: in vivo, mouse (male ddy strain); conditions: 30 mg/kg i.v., 30 minutes after administration, control = 100
Protocol: as §1
Each of the compounds of the present invention was dissolved in physiological saline or physiological saline added with a surfactant. The solution was intravenously administered to male ddy strain mice (3 in one group) at a dose of 30 mg/kg. For control, physiological saline or a surfactant alone was intravenously given to 3 mice in a similar manner.
Thirty minutes after administration, the animal was bled to death and the whole brain was excised out. Each brain was homogenized with 20-fold volume of 0.1M phosphate buffer containing 2 mM DTT and the homogenate was centrifuged at 3000 g for 20 minutes. The prolyl endopeptidase in the resulting supernatant was determined as in Experiment 1, as β-naphthylamine isolated. When the mean enzyme activity in the mouse brain for control is made 100 (β-naphthylamine value: 3.88±0.26), the residual enzyme activity was determined when the compounds of the present invention was administered.

T1 sequence (P23687 whole entry): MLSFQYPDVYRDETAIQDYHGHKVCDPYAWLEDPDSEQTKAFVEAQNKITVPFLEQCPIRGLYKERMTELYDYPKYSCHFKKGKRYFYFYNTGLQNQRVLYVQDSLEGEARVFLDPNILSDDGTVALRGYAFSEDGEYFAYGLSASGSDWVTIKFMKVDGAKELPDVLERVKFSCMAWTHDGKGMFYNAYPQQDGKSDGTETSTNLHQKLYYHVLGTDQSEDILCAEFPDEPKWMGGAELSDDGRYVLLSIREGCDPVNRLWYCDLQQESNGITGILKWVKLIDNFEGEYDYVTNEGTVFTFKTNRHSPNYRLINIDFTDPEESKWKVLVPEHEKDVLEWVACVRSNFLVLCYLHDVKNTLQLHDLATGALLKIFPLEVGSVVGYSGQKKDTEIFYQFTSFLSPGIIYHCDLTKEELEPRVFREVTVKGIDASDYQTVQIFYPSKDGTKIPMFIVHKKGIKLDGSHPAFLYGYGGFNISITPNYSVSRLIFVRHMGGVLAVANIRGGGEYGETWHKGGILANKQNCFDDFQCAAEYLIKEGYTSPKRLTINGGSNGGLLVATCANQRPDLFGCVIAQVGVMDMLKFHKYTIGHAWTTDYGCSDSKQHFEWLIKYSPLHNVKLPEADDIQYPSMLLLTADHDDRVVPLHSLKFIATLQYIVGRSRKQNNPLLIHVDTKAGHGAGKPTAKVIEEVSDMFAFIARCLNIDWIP

Row | Structure (SMILES) | IC50 (prolyl endopeptidase) | Residual Enzyme Activity (%) [1] | prolyl endopeptidase inhibition activity (in words) (prolyl endopeptidase; in vitro, qualitative statement)
1 | O=C(NC1CCCCC1)C(=O)C1CCCN1C(=O)c1ccc2ccccc2c1 (stereo not shown) [Example 64, N-Cyclohexyl-2-oxo-2-[2-(1-(2-naphthoyl)pyrrolidinyl)]acetamide] | 21.7 nM | 50.5% | 
2 | O=C(NC1CCCCC1)C(=O)C1CCCN1C(=O)c1ccc(CN2CCOCC2)cc1 (stereo not shown) [Example 84, N-Cyclohexyl-2-oxo-2-[2-(1-(4-morpholinomethylbenzoyl)pyrrolidinyl)]acetamide] | 72.5 nM | 50.3% | 
3 | O=C(NC1CCCCC1)C(=O)C1CCCN1C(=O)C(Cc1ccccc1)NC(=O)c1ccccn1 (stereo not shown) [Example 26, N-Cyclohexyl-2-oxo-2-[2-(1-(N-(2-pyridylcarbonyl)phenylalanyl)pyrrolidinyl)]acetamide] | 1.78 nM | 5.7% | 
4 | O=C(CCC1CCCCC1)NC(Cc1ccccc1)C(=O)N1CCCC1C(=O)C(=O)NC1CCCCC1 (stereo not shown) [Example 33, N-Cyclohexyl-2-oxo-2-[2-(1-(N-(3-cyclohexylpropionyl)-phenylalanyl)pyrrolidinyl)]acetamide] | 0.981 nM |  | 
5 | CC(C)C(NC(=O)c1ccc2ccccc2n1)C(=O)N1CCCC1C(=O)C(=O)NC1CCCCC1 (stereo not shown) [Example 9, N-Cyclohexyl-2-oxo-2-[2-(1-(N-(2-quinolinecarbonyl)valyl)pyrrolidinyl)]acetamide] | 1.34 nM |  | 
6 | O=C(NC1CC1)C(=O)C1CCCN1C(=O)C(Cc1ccccc1)NC(=O)c1cccc(Oc2ccccc2)c1 (stereo not shown) [Example 108, N-Cyclopropyl-2-oxo-2-[2-(1-(N-(3-phenoxybenzoyl)phenylalanyl)pyrrolidinyl)]acetamide] | 1.33 nM |  | potent inhibition activity on almost the same level
